Data published in PubChem BioAssay AID2060359 (Molecular Pharmacology Branch, DTP, NCI, 2025).

Tested on: 276233-004-R-J1-PDC spheroids with HUVEC/MSC, viability
Assay: Anticancer human tumor 276233-004-R-J1-PDC patient-derived colon adenocarcinoma cell line growth inhibition [TAK]
Settings: for IC50: curve of first compound; for viability, T/C: stronger effect = lower value
Outline: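 Drug combinations, each paired with TAK-243 or ipatasertib, were tested on multi-cell spheroids of 60% malignant cells, 25% HUVEC and 15% hMSC. Top concentrations were at or near the clinical Cmax (10 microM if undetermined), decreasing by half-log; viability is given as % test/control.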

[1] = second compound 0.3 µM, first compound 0.0316 µM
[2] = second compound 0.3 µM, first compound 0.1 µM
[3] = second compound 0.3 µM, first compound 0.316 µM
[4] = second compound 0.3 µM, first compound 1 µM
[5] = second compound 0.949 µM, first compound 0.0316 µM
[6] = second compound 0.949 µM, first compound 0.1 µM
[7] = second compound 0.949 µM, first compound 0.316 µM
[8] = second compound 0.949 µM, first compound 1 µM
[9] = second compound 3 µM, first compound 0.0316 µM
[10] = second compound 3 µM, first compound 0.1 µM
[11] = second compound 3 µM, first compound 0.316 µM
[12] = second compound 3 µM, first compound 1 µM
[13] = second compound 9.49 µM, first compound 0.0316 µM
[14] = second compound 9.49 µM, first compound 0.1 µM
[15] = second compound 9.49 µM, first compound 0.316 µM
[16] = second compound 9.49 µM, first compound 1 µM
[17] = second compound 30 µM, first compound 0.0316 µM
[18] = second compound 30 µM, first compound 0.1 µM
[19] = second compound 30 µM, first compound 0.316 µM
[20] = second compound 30 µM, first compound 1 µM
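Also: spheroids exposed to drugs for seven days before the viability read.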

| SMILES | IC50 (second compound 0.3 µM) | IC50 (second compound 0.949 µM) | IC50 (second compound 3 µM) | IC50 (second compound 9.49 µM) | IC50 (second compound 30 µM) | viability, T/C [1] | viability, T/C [2] | viability, T/C [3] | viability, T/C [4] | viability, T/C [5] | viability, T/C [6] | viability, T/C [7] | viability, T/C [8] | viability, T/C [9] | viability, T/C [10] | viability, T/C [11] | viability, T/C [12] | viability, T/C [13] | viability, T/C [14] | viability, T/C [15] | also measured |
| --- | --- | --- | --- | --- | --- | --- | --- | --- | --- | --- | --- | --- | --- | --- | --- | --- | --- | --- | --- | --- | --- |
| COc1c(OCCCN2CCOCC2)ccc2c3n(c(=NC(=O)c4cnc(N)nc4)nc12)CCN3 + CC(C)NCC(C(=O)N1CCN(c2ncnc3c2C(C)CC3O)CC1)c1ccc(Cl)cc1 | 31.3 nM | 29 nM | 26.4 nM | 21.5 nM | < 3.16 nM | 49.7% | 41.8% | 43.7% | 52.2% | 51.5% | 36.3% | 37.6% | 49.3% | 46.8% | 46% | 41.5% | 61.7% | 52.5% | 43% | 44% | viability, T/C (second compound 0.3 µM, first compound 0.00316 µM): 74.1%; viability, T/C (second compound 0.3 µM, first compound 0.01 µM): 78.6%; viability, T/C (second compound 0.949 µM, first compound 0.00316 µM): 67%; viability, T/C (second compound 0.949 µM, first compound 0.01 µM): 59.8%; viability, T/C (second compound 3 µM, first compound 0.00316 µM): 66.8%; viability, T/C (second compound 3 µM, first compound 0.01 µM): 53.3%; viability, T/C (second compound 9.49 µM, first compound 0.00316 µM): 60.5%; viability, T/C (second compound 9.49 µM, first compound 0.01 µM): 48.3%; viability, T/C [16]: 38.4%; viability, T/C (second compound 30 µM, first compound 0.00316 µM): 34%; viability, T/C (second compound 30 µM, first compound 0.01 µM): 34.5%; viability, T/C [17]: 33.2%; viability, T/C [18]: 32.9%; viability, T/C [19]: 25.9%; viability, T/C [20]: 41.5% |
| Cc1nc(NC(=O)N2CCCC2C(N)=O)sc1-c1ccnc(C(C)(C)C(F)(F)F)c1 (stereo not given) + CC(C)NCC(C(=O)N1CCN(c2ncnc3c2C(C)CC3O)CC1)c1ccc(Cl)cc1 | 7120 nM | 988 nM | 2690 nM | 2010 nM | < 31.6 nM | 95.3% | 77% | 79.2% | 69.4% | 77.3% | 78.8% | 71.9% | 49.4% | 63.7% | 77.3% | 67.5% | 58% | 54.5% | 64.5% | 63% | viability, T/C (second compound 0.3 µM, first compound 3.16 µM): 60.1%; viability, T/C (second compound 0.3 µM, first compound 10 µM): 44.7%; viability, T/C (second compound 0.949 µM, first compound 3.16 µM): 50.9%; viability, T/C (second compound 0.949 µM, first compound 10 µM): 40.9%; viability, T/C (second compound 3 µM, first compound 3.16 µM): 46.3%; viability, T/C (second compound 3 µM, first compound 10 µM): 50.8%; viability, T/C [16]: 55.8%; viability, T/C (second compound 9.49 µM, first compound 3.16 µM): 46%; viability, T/C (second compound 9.49 µM, first compound 10 µM): 39.8%; viability, T/C [17]: 39.1%; viability, T/C [18]: 40.9%; viability, T/C [19]: 34%; viability, T/C [20]: 32.9%; viability, T/C (second compound 30 µM, first compound 3.16 µM): 27.4%; viability, T/C (second compound 30 µM, first compound 10 µM): 24.5% |
